What all share (type): in vivo
The subject of assay [1] is Ctenocephalides felis. The experiment in a line: Ctenocephalides felis in vitro contact test with adult cat fleas. The conditions noted are these: application rate 5 μg/cm^2 (=500 g/ha), after 48 h. As for the experimental part: Ctenocephalides felis—In Vitro Contact Tests with Adult Cat Fleas
For the coating of the test tubes, 9 mg of active compound are first dissolved in 1 ml of acetone p.a. and then diluted to the desired concentration with acetone p.a. 250 μl of the solution are distributed homogeneously on the inner walls and the base of a 25 ml glass tube by turning and rocking on an orbital shaker (rocking rotation at 30 rpm for 2 h). With 900 ppm of active compound solution and internal surface area 44.7 cm^2, given homogeneous distribution, an area-based dose of 5 μg/cm^2 is achieved.
After the solvent has evaporated off, the tubes are populated with 5-10 adult cat fleas (Ctenocephalides felis), sealed with a perforated plastic lid and incubated in a horizontal position at room temperature and ambient humidity. After 48 h, efficacy is determined. To this end, the tubes are stood upright and the fleas are knocked to the base of the tube. Fleas which remain motionless at the base or move in an uncoordinated manner are considered to be dead or moribund.
100% efficacy means that all the fleas were dead or moribund. 0% efficacy means that no fleas were harmed.

In assay [2] the test system is Myzus persicae. The experiment in a line: Myzus persicae oral test. To be noted: after 5 days. Put shortly:
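Aphids fed through parafilm on compound formulation (acetone, diluted with water) mixed 50:150 μL with IPL41 insect medium (33%+15% sugar), using a mixed population. Efficacy was recorded after 5 days as % mortality (100% = all aphids killed).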

Assay [3] has as its system Nezara viridula. The experiment in a line: Nezara viridula spray test. To be noted: application rate 500 g/ha; larvae on barley plants; after 4 days. How it is done:
Nezara viridula—Spray Test
(§1) Solvent: 78.0 parts by weight of acetone • • 1.5 parts by weight of dimethylformamide
(§2) Emulsifier: alkylaryl polyglycol ether
(§3) To produce a suitable active compound formulation, 1 part by weight of active compound is dissolved with the specified parts by weight of solvent and made up to the desired concentration with water containing an emulsifier concentration of 1000 ppm. To produce further test concentrations, the formulation is diluted with emulsifier-containing water.
Barley plants (Hordeum vulgare) infected with larvae of the Southern green shield bug (Nezara viridula) are srayed with an active compound formulation of the desired concentration.
After 4 days, the efficacy in % is determined. 100% means that all of the shield bugs have been killed; 0% means that none of the shield bugs have been killed.

Assay [4] has as its system Diabrotica balteata. The experiment in a line: Diabrotica balteata spray test. To be noted: application rate 160 μg/well; beetle larvae on germinated wheat grains; after 7 days.
Assay [5] has as its system Nilaparvata lugens. Put plainly: Nilaparvata lugens test. To be noted: application rate 500 g/ha; rice plants; after 4 days. As for the experimental part: as §1, §2, §3
Rice plants (Oryza sativa) are sprayed with the active compound formulation of the desired concentration and then infected with the brown planthopper (Nilaparvata lugens).
After 4 days, the efficacy in % is determined. 100% means that all of the planthoppers have been killed; 0% means that none of the planthoppers have been killed.

For assay [6], the system named is Myzus persicae. The experiment in a line: Myzus persicae spray test. To be noted: application rate 500 g/ha; Chinese cabbage leaf discs; after 5 days.

Structures are written as SMILES.

Turning to `CC(=O)c1c([O-])[n+]2ccccc2n1Cc1cnc(Cl)s1` [Example I-008], the efficacy amounted to 100% in assay [1]; 100% in assay [2] (application rate 4 ppm); 100% in assay [2] (application rate 20 ppm); 90% in assay [3]; 100% in assay [4]; 100% in assay [5]. In assay [6], this molecule came in with an efficacy of 100%.

For the origin of these results see patent US20200037600A1, “MESOIONIC IMIDAZOPYRIDINES AS INSECTICIDES” (Bayer Aktiengesellschaft, priority 2017, published 2020).
